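Five compound concentrations were applied to cells in 96-well plates for 48 hours; endpoints were derived by simple linear interpolation of the resulting dose-response curve. TGI denotes the concentration required for complete inhibition of growth.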
Key:
Assay in all cases: DTP human tumour cell line panel, 48 h
EKVX NSCLC = test system: EKVX NSCLC
HL-60(TB) leukemia = test system: HL-60(TB) leukemia
SNB-75 CNS = test system: SNB-75 CNS
T-47D breast = test system: T-47D breast
UO-31 renal = test system: UO-31 renal
NCI-H226 lung = test system: NCI-H226 lung
HCT-15 colon = test system: HCT-15 colon
SK-MEL-2 melanoma = test system: SK-MEL-2 melanoma
HOP-62 NSCLC = test system: HOP-62 NSCLC
HOP-92 NSCLC = test system: HOP-92 NSCLC
UACC-257 melanoma = test system: UACC-257 melanoma
COLO 205 colon = test system: COLO 205 colon
TK-10 renal = test system: TK-10 renal
HS 578T breast = test system: HS 578T breast
OVCAR-3 ovarian = test system: OVCAR-3 ovarian

Compound: O=C(c1ccco1)N(C(=O)N1CCN(c2ccccc2)CC1)S(=O)(=O)c1ccccc1
- TGI (EKVX NSCLC): 60.2 µM
- TGI (HL-60(TB) leukemia): 45.1 µM
- TGI (SNB-75 CNS): 62.9 µM
- TGI (T-47D breast): 61 µM
- TGI (UO-31 renal): 53.6 µM
- TGI (NCI-H226 lung): > 100 µM
- TGI (HCT-15 colon): > 100 µM
- TGI (SK-MEL-2 melanoma): 37.2 µM
- TGI (HOP-62 NSCLC): > 100 µM
- TGI (HOP-92 NSCLC): 73.6 µM
- TGI (UACC-257 melanoma): > 100 µM
- TGI (COLO 205 colon): 82.4 µM
- TGI (TK-10 renal): > 100 µM
- TGI (HS 578T breast): > 100 µM
- TGI (OVCAR-3 ovarian): > 100 µM
